In assay [1] the target is T1, RLIP76 (Homo sapiens, UniProt Q15311).
T1 construct: gene RALBP1; purified recombinant RLIP76 reconstituted in proteoliposomes
T1 sequence (Q15311 2-655): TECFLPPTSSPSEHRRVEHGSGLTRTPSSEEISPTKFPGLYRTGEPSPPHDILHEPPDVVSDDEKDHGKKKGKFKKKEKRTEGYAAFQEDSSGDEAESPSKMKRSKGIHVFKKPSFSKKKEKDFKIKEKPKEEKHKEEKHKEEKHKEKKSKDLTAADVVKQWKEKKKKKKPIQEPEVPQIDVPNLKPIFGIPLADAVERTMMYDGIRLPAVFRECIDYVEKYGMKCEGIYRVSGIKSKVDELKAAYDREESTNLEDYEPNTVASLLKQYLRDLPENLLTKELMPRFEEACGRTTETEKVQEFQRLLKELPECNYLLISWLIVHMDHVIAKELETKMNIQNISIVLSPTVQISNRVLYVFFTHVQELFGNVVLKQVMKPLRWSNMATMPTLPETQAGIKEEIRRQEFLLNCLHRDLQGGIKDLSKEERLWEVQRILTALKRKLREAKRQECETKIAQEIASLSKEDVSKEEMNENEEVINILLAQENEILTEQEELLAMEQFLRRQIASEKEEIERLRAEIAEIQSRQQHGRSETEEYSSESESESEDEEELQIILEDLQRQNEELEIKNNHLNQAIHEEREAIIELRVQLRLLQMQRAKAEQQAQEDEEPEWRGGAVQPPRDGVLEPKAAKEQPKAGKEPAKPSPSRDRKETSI
Put plainly: ATP-dependent uptake of 3H-GSHNE into RLIP76 proteoliposomes. The format is biochemical. The settings on record: 10 µM, labelled compound, 37 °C.

The target in assay [2] is T1, RLIP76. As to the kind of experiment: inhibition of ATP-dependent 3H-GSHNE uptake into RLIP76 proteoliposomes. The format is biochemical. The settings on record: 10 µM 3H-GSHNE, 0-100 µM drug, 30 min incubation at 37 °C.

Each structure is given as a SMILES string.

Regarding `CCCCCC(O)C(CC=O)SC[C@H](NC(=O)CC[C@H](N)C(=O)O)C(=O)NCC(=O)O` (stereo partly drawn) [3H-GSHNE], the “ATP-dependent uptake of 3H-GSHNE into RLIP76 proteoliposomes” value at RLIP76 [1] is reported as “ATP-dependent uptake of ^3H-GSHNE”. Regarding `CN(C)C(=N)NC(=N)N` [metformin], the “inhibition of ATP-dependent 3H-GSHNE uptake into RLIP76 proteoliposomes” value against RLIP76 [2] is listed as “metformin inhibits only half of the transport activity”. Consider `CN(CCOc1ccc(CC2SC(=O)NC2=O)cc1)c1ccccn1` (stereo not drawn) [rosiglitazone], for which the “inhibition of ATP-dependent 3H-GSHNE uptake into RLIP76 proteoliposomes” value on RLIP76 [2] is “Inhibition of the transport activity of purified recombinant human RLIP76 towards physiological substrate”.

Values taken from publication PMC3172288, “RLIP76, a Glutathione-Conjugate Transporter, Plays a Major Role in the Pathogenesis of Metabolic Syndrome” (PLoS ONE, 2011).
